Experimental findings from patent US7449190B2 (priority 2002, dated 2008) are described below.

Experiment [1] relates to interaction of NP with VP35. It counts as biochemical, Ebola virus.
A further experiment has as its system NP. It counts as cell-based, Ebola virus.
The subject of a further experiment is HIV gp160. It counts as cell-based.

As to `CCCCCCCCO[C@H]1O[C@H](COC(C)=O)[C@@H](OC(C)=O)[C@H](OC(C)=O)[C@@H]1OC(C)=O` [AcManα1-OC8, acetylated Manα1-O-octyl], the “inhibition of the interaction of NP with VP35” value in experiment [1] was “not seen”.

With `C[C@H]1CCC/C=C/[C@@H]2C[C@H](O)C[C@H]2[C@H](O)/C=C/C(=O)O1` [Brefeldin A], the “effect in the in vitro transcription/translation system (NP synthesis or association of NP with VP35 and VP24)” value in experiment [1] is “without any effect”.

On to `CCCCCCCCO[C@H]1O[C@H](CO)[C@@H](O)[C@H](O)[C@@H]1O` [Manα1-OC8, mannose α1-O-octyl], for which, in experiment [1], the “dose dependence of inhibition of NP/VP35 interaction” value is “dose-dependent”, the “inhibition of NP/VP35 interaction when added after translation” value was “did not inhibit” and the “inhibition of the interaction of NP with VP35” value was “substantially reduced”.

As for `CC(=O)N[C@H]1[C@@H](OCc2ccccc2)O[C@H](CO)[C@H](O)[C@@H]1O[C@@H]1O[C@H](CO)[C@H](O)[C@H](O)[C@H]1O` [benzyl 2-acetamido-2-deoxy-3-O-b-D-galactopyranosyl-a-D-galactopyranoside], in experiment [1], the “effect in the in vitro transcription/translation system (NP synthesis or association of NP with VP35 and VP24)” value is on record as “without any effect”.

Regarding `CC(=O)N[C@H]1[C@@H](OCc2ccccc2)O[C@H](CO)[C@H](O)[C@@H]1O` [benzyl 2-acetamido-2-deoxy-a-D-galactopyranoside], in experiment [1], the “effect in the in vitro transcription/translation system (NP synthesis or association of NP with VP35 and VP24)” value was “without any effect”.

Consider `CC(=O)N[C@H]1[C@H](OCc2ccccc2)O[C@H](CO)[C@@H](O)[C@@H]1O` [benzyl 2-acetamido-2-deoxy-b-D-glucopyranoside], for which the “effect in the in vitro transcription/translation system (NP synthesis or association of NP with VP35 and VP24)” value in experiment [1] was “without any effect”.

With `O=C(N[C@H]1[C@@H](OCc2ccccc2)O[C@H](CO)[C@@H](O)[C@@H]1O)OCc1ccccc1` [benzyl Z-a-D-glucosaminide], the “effect in the in vitro transcription/translation system (NP synthesis or association of NP with VP35 and VP24)” value in experiment [1] was “without any effect”.

As for `O=C(N[C@H]1[C@H](OCc2ccccc2)O[C@H](CO)[C@@H](O)[C@@H]1O)OCc1ccccc1` [benzyl Z-b-D-glucosaminide], the “effect in the in vitro transcription/translation system (NP synthesis or association of NP with VP35 and VP24)” value in experiment [1] was “without any effect”.

As to `OC[C@H]1NC[C@@H](O)[C@@H](O)[C@@H]1O` [deoxymannojirimycin], in the experiment with NP, the “effect on NP migration (glycosylation) in NP-transfected 293 cells” value is “No effect”.

In the case of `CC(=O)N[C@H]1[C@@H](Oc2ccccc2)O[C@H](CO)[C@H](O)[C@@H]1O` [phenyl N-acetyl-a-D-galactosaminide], the “effect in the in vitro transcription/translation system (NP synthesis or association of NP with VP35 and VP24)” value in experiment [1] is on record as “without any effect”.

Turning to tunicamycin, the “expression of HIV gp160” value in the experiment with HIV gp160 is listed as “abolished”. Also, in the experiment with NP, the “effect on NP migration (glycosylation) in NP-transfected 293 cells” value was “No effect” and the “synthesis of NP in NP-transfected 293 cells” value is recorded as “unaffected”.
